These results are taken from US11420969B2 (Exonate Limited, priority 2017, dated 2022).

Each structure is given as a SMILES string.

The target in one assay is SRPK1 (Homo sapiens, UniProt Q96SB4). The assay can be described thus: In vitro SRPK1 assay (Kinase-Glo). The format is biochemical. Background: In Kinase-Glo more light means more ATP remaining.
In another assay the target is T1, CYP1A2 (Homo sapiens, UniProt P05177).
T1 construct: from tissue; host or cells: human liver microsomes
T1 sequence (P05177 1-516): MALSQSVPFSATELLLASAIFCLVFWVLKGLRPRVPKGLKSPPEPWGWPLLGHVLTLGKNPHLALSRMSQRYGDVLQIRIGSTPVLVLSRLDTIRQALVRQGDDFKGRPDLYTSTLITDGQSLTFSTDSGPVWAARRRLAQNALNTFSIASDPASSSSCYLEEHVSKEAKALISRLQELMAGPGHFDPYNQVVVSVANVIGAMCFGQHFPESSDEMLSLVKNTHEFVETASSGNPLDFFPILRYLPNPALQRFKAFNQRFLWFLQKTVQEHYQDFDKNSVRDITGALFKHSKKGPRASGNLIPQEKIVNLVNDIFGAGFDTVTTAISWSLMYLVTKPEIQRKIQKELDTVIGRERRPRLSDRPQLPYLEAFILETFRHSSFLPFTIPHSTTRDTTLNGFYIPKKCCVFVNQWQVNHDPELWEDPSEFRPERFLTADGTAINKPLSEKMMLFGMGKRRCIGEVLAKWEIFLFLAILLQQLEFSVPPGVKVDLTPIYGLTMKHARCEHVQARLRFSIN
The assay can be described thus: CYP inhibition assay, human liver microsomes, substrate tacrine. The format is in vitro ADME. Particulars: human liver microsomes, 10 min incubation, LC-MS/MS; read-out: CYP Inhibition Activity (IC50/nM) CYP1A2. The gist of the method:
(§1)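 Metabolite formation measured by LC-MS/MS after quench with cold acetonitrile, yielding % inhibition and IC50. Reactions ran 10 min at 37° C after NADPH addition, following 20 min pre-incubation of substrate pool and inhibitor with human liver microsomes.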
On the technique in general: Liver microsomes are vesicles of endoplasmic reticulum, rich in cytochrome P450 enzymes.

The target of the next assay is T2, CYP2C9 (Homo sapiens, UniProt P11712).
T2 construct: from tissue; host or cells: human liver microsomes
Description: CYP inhibition assay, human liver microsomes, substrate diclofenac. The format is in vitro ADME. Particulars: human liver microsomes, 10 min incubation, LC-MS/MS; read-out: CYP Inhibition Activity (IC50/nM) CYP2C9. In outline: as §1

The target of a further assay is T3, CYP2C19 (Homo sapiens, UniProt P33261).
T3 construct: from tissue; host or cells: human liver microsomes
Description: CYP inhibition assay, human liver microsomes, substrate S-mephenytoin. The format is in vitro ADME. Particulars: human liver microsomes, 10 min incubation, LC-MS/MS; read-out: CYP Inhibition Activity (IC50/nM) CYP2C19. The gist of the method: as §1

The next assay addresses T4, CYP2D6 (Homo sapiens, UniProt P10635).
T4 construct: from tissue; host or cells: human liver microsomes
The assay can be described thus: biochemical. The format is in vitro ADME. The gist of the method: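 Read-out is LC-MS/MS of supernatant, giving % inhibition and IC50 relative to a no-inhibitor ACN/DMSO control. Compound and substrate pool were pre-incubated 20 min at 37° C with human liver microsomes (working stock 0.253 mg/mL) before a 10 min NADPH-driven reaction, quenched with cold ACN.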

The target of the next assay is T5, CYP3A4 (Homo sapiens, UniProt P08684).
T5 construct: from tissue; host or cells: human liver microsomes
Description: CYP inhibition assay, human liver microsomes, substrate midazolam. Particulars: human liver microsomes, 10 min incubation, LC-MS/MS; read-out: CYP Inhibition Activity (IC50/nM) CYP3A4. The format is in vitro ADME. The gist of the method:
as §1

Sequence of SRPK1 (Q96SB4 whole entry, species assumed): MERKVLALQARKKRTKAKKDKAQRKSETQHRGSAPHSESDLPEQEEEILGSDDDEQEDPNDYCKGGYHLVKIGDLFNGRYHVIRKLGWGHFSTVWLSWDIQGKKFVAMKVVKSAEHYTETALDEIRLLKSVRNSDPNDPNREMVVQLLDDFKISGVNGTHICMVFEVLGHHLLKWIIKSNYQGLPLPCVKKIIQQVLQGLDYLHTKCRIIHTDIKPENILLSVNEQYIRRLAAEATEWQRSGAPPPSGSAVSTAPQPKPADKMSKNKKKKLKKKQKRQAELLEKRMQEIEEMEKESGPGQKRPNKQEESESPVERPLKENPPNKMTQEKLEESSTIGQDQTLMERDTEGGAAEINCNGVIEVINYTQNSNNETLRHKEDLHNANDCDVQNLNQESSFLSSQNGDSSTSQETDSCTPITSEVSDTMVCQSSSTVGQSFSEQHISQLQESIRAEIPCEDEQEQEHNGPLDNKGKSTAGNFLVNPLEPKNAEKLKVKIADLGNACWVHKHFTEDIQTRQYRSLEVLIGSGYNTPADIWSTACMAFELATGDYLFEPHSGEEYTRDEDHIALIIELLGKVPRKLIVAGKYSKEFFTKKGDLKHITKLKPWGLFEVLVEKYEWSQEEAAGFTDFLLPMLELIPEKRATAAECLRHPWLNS
T5 sequence (P08684 whole entry): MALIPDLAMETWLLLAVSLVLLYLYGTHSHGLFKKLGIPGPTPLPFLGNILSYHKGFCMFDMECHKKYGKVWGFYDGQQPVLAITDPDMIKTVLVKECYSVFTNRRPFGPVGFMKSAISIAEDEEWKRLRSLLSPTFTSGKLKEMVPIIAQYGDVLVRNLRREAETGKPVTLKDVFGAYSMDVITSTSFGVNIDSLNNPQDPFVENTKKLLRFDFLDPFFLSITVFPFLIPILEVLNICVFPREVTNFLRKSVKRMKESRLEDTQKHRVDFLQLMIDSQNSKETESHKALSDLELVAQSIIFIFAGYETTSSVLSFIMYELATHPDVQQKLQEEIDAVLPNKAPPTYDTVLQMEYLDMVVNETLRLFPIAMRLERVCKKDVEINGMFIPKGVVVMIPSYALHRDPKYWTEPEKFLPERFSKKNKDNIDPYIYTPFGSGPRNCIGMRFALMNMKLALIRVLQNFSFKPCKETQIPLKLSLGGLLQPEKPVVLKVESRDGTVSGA
T4 sequence (P10635 whole entry): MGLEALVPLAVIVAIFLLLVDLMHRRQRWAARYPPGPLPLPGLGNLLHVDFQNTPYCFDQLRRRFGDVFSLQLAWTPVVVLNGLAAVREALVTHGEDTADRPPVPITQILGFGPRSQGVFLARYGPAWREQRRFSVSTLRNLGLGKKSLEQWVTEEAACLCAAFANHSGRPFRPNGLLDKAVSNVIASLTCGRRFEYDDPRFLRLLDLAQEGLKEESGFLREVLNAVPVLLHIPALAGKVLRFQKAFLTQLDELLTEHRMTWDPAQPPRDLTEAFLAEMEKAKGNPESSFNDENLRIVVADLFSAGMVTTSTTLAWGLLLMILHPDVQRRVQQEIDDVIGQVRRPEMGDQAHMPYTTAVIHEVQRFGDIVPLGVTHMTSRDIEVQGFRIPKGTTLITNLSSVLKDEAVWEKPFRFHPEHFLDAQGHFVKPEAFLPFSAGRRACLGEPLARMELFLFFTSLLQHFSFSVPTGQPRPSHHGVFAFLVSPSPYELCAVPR
T2 sequence (P11712 whole entry): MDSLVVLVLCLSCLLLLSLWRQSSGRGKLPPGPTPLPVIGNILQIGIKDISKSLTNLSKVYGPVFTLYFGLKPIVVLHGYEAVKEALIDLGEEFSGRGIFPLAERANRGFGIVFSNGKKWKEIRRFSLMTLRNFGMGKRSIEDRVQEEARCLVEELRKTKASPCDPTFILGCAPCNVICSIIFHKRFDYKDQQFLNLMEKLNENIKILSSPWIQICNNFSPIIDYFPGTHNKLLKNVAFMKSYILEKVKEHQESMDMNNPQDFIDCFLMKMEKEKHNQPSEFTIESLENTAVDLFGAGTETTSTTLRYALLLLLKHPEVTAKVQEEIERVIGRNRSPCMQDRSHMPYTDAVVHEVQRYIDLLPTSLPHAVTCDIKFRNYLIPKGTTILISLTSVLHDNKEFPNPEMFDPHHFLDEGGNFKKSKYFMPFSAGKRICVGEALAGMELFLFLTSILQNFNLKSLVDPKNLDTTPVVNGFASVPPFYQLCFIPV
T3 sequence (P33261 whole entry): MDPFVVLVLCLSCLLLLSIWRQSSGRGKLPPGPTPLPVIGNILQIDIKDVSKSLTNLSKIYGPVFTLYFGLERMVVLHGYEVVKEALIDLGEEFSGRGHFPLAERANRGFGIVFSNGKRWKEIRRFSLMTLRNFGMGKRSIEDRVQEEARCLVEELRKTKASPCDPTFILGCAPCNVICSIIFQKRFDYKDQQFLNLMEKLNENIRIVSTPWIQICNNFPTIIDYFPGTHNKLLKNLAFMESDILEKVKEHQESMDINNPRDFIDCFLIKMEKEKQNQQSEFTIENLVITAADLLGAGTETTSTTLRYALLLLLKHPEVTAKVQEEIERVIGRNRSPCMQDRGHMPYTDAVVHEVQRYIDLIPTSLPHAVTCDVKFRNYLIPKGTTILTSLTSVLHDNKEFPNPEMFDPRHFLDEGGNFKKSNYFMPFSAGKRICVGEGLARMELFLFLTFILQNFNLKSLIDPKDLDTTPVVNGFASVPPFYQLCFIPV

For `CN(C)CC1(C)CCN(c2ccc(C(F)(F)F)cc2NC(=O)c2ccc(-c3ccncc3)o2)CC1` [Example 80, N-(2-(4-((dimethylamino)methyl)-4-methyl-piperidin-1-yl)-5-(trifluoromethyl)phenyl)-5-(pyridin-4-yl)furan-2-carboxamide], the IC50 is 42 nM against SRPK1; more than 30000 nM at CYP1A2; 7640 nM on CYP2C9; 7340 nM at CYP2C19; 1.04 µM at CYP2D6; 3540 nM at CYP3A4.

Take `Cc1ccc(N2CCC(O)CC2)c(NC(=O)c2ccc(C3CCOCC3)o2)c1` [Example 36, N-(2-(4-hydroxypiperidin-1-yl)-5-methylphenyl)-5-(tetrahydro-2H-pyran-4-yl)furan-2-carboxamide]: the IC50 against SRPK1 was 3.7 nM; at CYP1A2 it was 6590 nM; on CYP2C9, 4940 nM; at CYP2C19, 7500 nM; on CYP2D6 it was 21.5 µM; at CYP3A4, more than 30000 nM.

As for `O=C(Nc1cc(C(F)(F)F)ccc1N1CCC(O)(Cc2ccccc2)CC1)c1ccc(C2CCOCC2)o1` [Example 19], the IC50 at SRPK1 is 39 nM; on CYP1A2, 15300 nM; at CYP2C9, 12700 nM; on CYP2C19 it was 12300 nM; at CYP2D6 it was more than 30 µM; on CYP3A4, 18800 nM.

In the case of `CC1(O)CCN(c2ccc(C3CC3)cc2NC(=O)c2ccc(C3CCOCC3)o2)CC1` [Example 17, N-(5-cyclopropyl-2-(4-hydroxy-4-methylpiperidin-1-yl)phenyl)-5-(tetrahydro-2H-pyran-4-yl)furan-2-carboxamide], the IC50 against SRPK1 is 2 nM; on CYP1A2, more than 30000 nM; on CYP2C9 it was 3770 nM; at CYP2C19, 9570 nM; at CYP2D6, more than 30 µM; on CYP3A4, 15200 nM.

Consider `COc1ccc(N2CCC(C)(CN(C)C)CC2)c(NC(=O)c2ccc(C3CCOCC3)o2)c1` [Example 92, N-(2-(4-((dimethylamino)methyl)-4-methyl-piperidin-1-yl)-5-methoxyphenyl)-5-(tetrahydro-2H-pyran-4-yl)furan-2-carboxamide], for which the IC50 is 150 nM against SRPK1; more than 30000 nM on CYP1A2; 10400 nM on CYP2C9; more than 30000 nM on CYP2C19; 1.5 µM on CYP2D6; more than 30000 nM on CYP3A4.

Regarding `Cc1ccc(N2CCC(O)(CC3CC3)CC2)c(NC(=O)c2ccc(C3CCOCC3)o2)c1` [Example 70, N-(2-(4-(cyclopropylmethyl)-4-hydroxypiperidin-1-yl)-5-methylphenyl)-5-(tetrahydro-2H-pyran-4-yl)furan-2-carboxamide], the IC50 against SRPK1 is 11 nM; on CYP1A2, more than 30000 nM; on CYP2C9, 1800 nM; on CYP2C19 it was 2200 nM; on CYP2D6, 4.7 µM; on CYP3A4, 4400 nM.

`CC1(CO)CCN(c2ccc(C(F)(F)F)cc2NC(=O)c2ccc(-c3ccncc3)o2)CC1` [Example 24, N-(2-(4-(hydroxymethyl)-4-methylpiperidin-1-yl)-5-(trifluoromethyl)phenyl)-5-(pyridin-4-yl)furan-2-carboxamide]: the IC50 was 2 nM at SRPK1; more than 30000 nM at CYP1A2; more than 30000 nM on CYP2C9; more than 30000 nM on CYP2C19; more than 30 µM on CYP2D6; more than 30000 nM on CYP3A4.

As for `O=C(Nc1cc(Cl)ccc1N1CCCC(O)CC1)c1ccc(C2CCOCC2)o1` (racemic) [Example 48, N-(5-chloro-2-(4-hydroxyazepan-1-yl)phenyl)-5-(tetrahydro-2H-pyran-4-yl)furan-2-carboxamide], the IC50 at SRPK1 turned out to be 15 nM; at CYP1A2, 16800 nM; at CYP2C9, 10300 nM; at CYP2C19, 6000 nM; at CYP2D6, 15.7 µM; at CYP3A4, 21100 nM.

For `CC1CCN(c2ccc(C(F)(F)F)cc2NC(=O)c2ccc(-c3ccncc3)o2)CC1` [Example 34, N-(2-(4-methylpiperidin-1-yl)-5-(trifluoromethyl)-phenyl)-5-(pyridin-4-yl)furan-2-carboxamide], the IC50 is 422 nM on SRPK1; 4000 nM on CYP1A2; 5600 nM at CYP2C9; 4000 nM on CYP2C19; 5.5 µM on CYP2D6; 7300 nM at CYP3A4.

As to `O=C(Nc1cc(C2CC2)ccc1N1CCC(O)(CC2CC2)CC1)c1ccc(C2CCOCC2)o1` [Example 71, N-(5-cyclopropyl-2-(4-(cyclopropylmethyl)-4-hydroxypiperidin-1-yl)phenyl)-5-(tetrahydro-2H-pyran-4-yl)furan-2-carboxamide], the IC50 against SRPK1 is 2.9 nM; at CYP1A2 it was more than 30000 nM; at CYP2C9, 5420 nM; on CYP2C19 it was 2700 nM; against CYP2D6, 8.79 µM; at CYP3A4, 4190 nM.

Regarding `COC1(C)CCN(c2ccc(C(F)(F)F)cc2NC(=O)c2ccc(C3CCOCC3)o2)CC1` [Example 18, N-(2-(4-methoxy-4-methylpiperidin-1-yl)-5-(trifluoromethyl)-phenyl)-5-(tetrahydro-2H-pyran-4-yl)furan-2-carboxamide], the IC50 against SRPK1 was 54 nM; on CYP1A2, more than 30000 nM; at CYP2C9, 5160 nM; on CYP2C19, 4910 nM; at CYP2D6, 15.8 µM; at CYP3A4, 9800 nM.

Take `O=C(Nc1cc(C(F)(F)F)ccc1N1CCC(O)CC1)c1ccc(-c2ccncc2)o1` [Example 32, N-(2-(4-hydroxypiperidin-1-yl)-5-(trifluoromethyl)-phenyl)-5-(pyridin-4-yl)furan-2-carboxamide]: the IC50 came to 0.8 nM on SRPK1; 2900 nM at CYP1A2; 1500 nM at CYP2C9; 1100 nM on CYP2C19; 2.1 µM against CYP2D6; 4200 nM at CYP3A4.

For the compound `CC1(N)CCN(c2ccc(C(F)(F)F)cc2NC(=O)c2ccc(-c3ccncc3)o2)CC1` [Example 102, N-(2-(4-amino-4-methylpiperidin-1-yl)-5-(trifluoromethyl)phenyl)-5-(pyridin-4-yl)furan-2-carboxamide], the IC50 on SRPK1 is 44.6 nM; on CYP1A2, more than 30000 nM; on CYP2C9, 14100 nM; on CYP2C19 it was 9400 nM; on CYP2D6 it was 0.1 µM; at CYP3A4, 3900 nM.

For `CC1(O)CCN(c2ccc(C(F)F)cc2NC(=O)c2ccc(C3CCOCC3)o2)CC1` [Example 14, N-(5-(difluoromethyl)-2-(4-hydroxy-4-methyl-piperidin-1-yl)phenyl)-5-(tetrahydro-2H-pyran-4-yl)furan-2-carboxamide], the IC50 at SRPK1 came out at 7.3 nM; on CYP1A2, 19000 nM; on CYP2C9, 3800 nM; at CYP2C19, 7700 nM; at CYP2D6, 25.9 µM; on CYP3A4 it was 7700 nM.

As for `CC1(O)CCN(c2ccc(OC(F)(F)F)cc2NC(=O)c2ccc(-c3ccncc3)o2)CC1` [Example 10, N-(2-(4-hydroxy-4-methylpiperidin-1-yl)-5-(trifluoromethoxy)phenyl)-5-(pyridin-4-yl)furan-2-carboxamide], the IC50 amounted to 6 nM against SRPK1; 14400 nM on CYP1A2; 1770 nM on CYP2C9; 2670 nM on CYP2C19; 5.42 µM on CYP2D6; 3780 nM on CYP3A4.

For the compound `Cc1ccc(N2CCC(C)(CN(C)C)CC2)c(NC(=O)c2ccc(C3CCOCC3)o2)c1` [Example 94, N-(2-(4-((dimethylamino)methyl)-4-methyl-piperidin-1-yl)-5-methylphenyl)-5-(tetrahydro-2H-pyran-4-yl)furan-2-carboxamide], the IC50 was 167 nM at SRPK1; more than 30000 nM at CYP1A2; 17200 nM at CYP2C9; 25100 nM at CYP2C19; 0.3 µM against CYP2D6; 23100 nM at CYP3A4.

In the case of `O=C(Nc1cc(C(F)(F)F)ccc1N1CCCC(O)CC1)c1ccc(C2CCOCC2)o1` (racemic) [Example 47, N-(2-(4-hydroxyazepan-1-yl)-5-(trifluoromethyl)-phenyl)-5-(tetrahydro-2H-pyran-4-yl)furan-2-carboxamide], the IC50 was 10.4 nM at SRPK1; more than 30000 nM on CYP1A2; more than 30000 nM at CYP2C9; more than 30000 nM on CYP2C19; more than 30 µM on CYP2D6; more than 30000 nM on CYP3A4.
